US20140206737A1 (Beijing Zhongwei Shennong Chronic Disease Medical Research …, priority 2013, published 2014)
Where a name gives a salt, the structure may show the parent alone.

Legend:
[1] = system: opioid dependent participants; experiment: Treatment of heroin addiction: clinical rating of withdrawal symptoms; type: in vivo, human
Source text: (§1) 1.1. Subject selection criteria: 60 participants, in the range of 18-50 years of age, male or female, and opioid dependent as diagnosed according to the DSM-IV diagnostic criteria for opioid dependence.
Subject exclusion criteria: candidates with serious heart disease, liver or kidney dysfunction, mental illness, serious bodily weakness, or pregnant or lactating women were excluded.
(§2) 1.3. Grouping: 60 cases of participants were randomly divided into two groups according to the order of admission: the test group and the methadone control group.
(§3) The control group used methadone hydrochloride oral medication of 10 mg/10 ml each. Comparison method: according to the heroin-dependent self-restraining degree of 7-10 days, the treatment was designed to be 10 days long for both groups. […] The treatment concluded on day 10. Methadone control group was admitted 50-60 mg methadone on the first day; starting on day 2, the methadone dose was reduced by 10 mg per day each day; starting on day 6, the methadone dose was reduced by 2 mg per day each day. The treatment concluded on day 10. Supplementary drugs used in the two groups included normal doses of clonazepam tablets (clonazopam), alprazolam tablets (Alprazoli) once a day at night.
1.5.1. Clinical rating used indicators of withdrawal, which has 20 indicators including craving, anxiety, agitation, nausea, vomiting, hot face, chills, or alternating chills and fever, yawning, runny nose, tears, sweating, drowsiness, cutis anserina, tremors, bone and muscle pain, anorexia, abdominal pain, diarrhea, insomnia, and curled position. The rating was done daily on the day before the treatment and on each day during the treatment. The severity of withdrawal symptoms was scored as level 0-4 (five levels in total). Scoring for each participant was done at 9:00 am every day.
(§4) 1.6. Statistical analysis of the two groups: the general characteristics, withdrawal symptoms, and anxiety symptoms of the two groups, were statistically analyzed using the t test, chi-square test and Fisher's Exact Test, using suitable software such as SPSS 7.0. The t test was applied to the symptom data of the two groups, and chi-square test or Fisher's Exact Test was applied to the count data.

[2] = system: opioid dependent participants; experiment: Treatment of heroin addiction: adverse reactions and side effects; details: 10-day treatment
Description: as §1, §2, §3
1.5.2. Recordation of adverse reactions: adverse reactions were evaluated in the withdrawal symptom measurement table, using a total of 10 indicators that include: dizziness, syncope, malaise, nausea, vomiting, sweating, dry mouth, drowsiness, blurred vision, disturbance of consciousness. The recordation was done each morning at 9:00.
as §4

[3] = system: opioid dependent participants; experiment: Treatment of heroin addiction: degree of anxiety by Hamilton Anxiety Scale (HAMA); type: in vivo, human; details: Day 5
Description: as §1, §2, §3
1.5.3. […]
1.6. Statistical analysis of the two groups: the general characteristics, withdrawal symptoms, and anxiety symptoms of the two groups, were statistically analyzed using the t test, chi-square test and Fisher's Exact Test, using suitable software such as SPSS 7.0. […]

CCC(=O)C(CC(C)N(C)C)(c1ccccc1)c1ccccc1 (stereo not drawn) [Methadone, methadone hydrochloride]
withdrawal symptoms (x ± s) ([1]; Before treatment, 20 indicators scored level 0-4, 30 per group): 56.03 ± 1.80 | withdrawal symptoms (x ± s) ([1]; Day 1 of treatment): 5.01 ± 0.83 | withdrawal symptoms (x ± s) ([1]; Day 2 of treatment): 27.78 ± 1.40 | withdrawal symptoms (x ± s) ([1]; Day 3 of treatment): 19.71 ± 1.13 | withdrawal symptoms (x ± s) ([1]; Day 4 of treatment): 13.54 ± 1.01 | withdrawal symptoms (x ± s) ([1]; Day 5 of treatment): 8.27 ± 0.28 | withdrawal symptoms (x ± s) ([1]; Day 6 of treatment): 3.84 ± 0.06 | withdrawal symptoms (x ± s) ([1]; Day 7 of treatment): 3.26 ± 0.27 | withdrawal symptoms (x ± s) ([1]; Day 8 of treatment): 3.84 ± 0.07 | withdrawal symptoms (x ± s) ([1]; Day 9 of treatment): 3.82 ± 0.18 | withdrawal symptoms (x ± s) ([1]; Day 10 of treatment): 4.80 ± 0.11 | Adverse Reactions: Abdominal pain ([2]; count, 30 per group): 6 | Adverse Reactions: Chills ([2]; count, 30 per group): 7 | Adverse Reactions: Diarrhea ([2]; count, 30 per group): 3 | Adverse Reactions: Runny nose ([2]; count, 30 per group): 8 | Adverse Reactions: Tears ([2]; count, 30 per group): 8 | Side effects ([2]; heroin addiction study): dizziness, malaise, nausea, sweating and heart palpitations | emotional changes measured by HAMA (x ± s) [3]: 8.83 ± 0.45
